Results on 25 compounds are retold here after patent US9315520B2, “2-amino-6-methyl-4,4a,5,6-tetrahydropyrano[3,4-d][1,3]thiazin-8a(8H)-yl-1,3-thiazol-4-yl amides” (Pfizer Inc., priority 2014, dated 2016).

Where a name gives a salt, the structure may show the parent alone.

For one assay, the target named is BACE1 (Homo sapiens (Human), UniProt P56817). The experiment in a line: BACE1 Cell-Free Assay (fluorescence polarization). The class given is biochemical. Conditions: geometric mean of 2-4 determinations unless otherwise indicated (b: ≧5; c: single determination); read-out: BACE1 Cell-free Assay IC50. An excerpt: This assay measures the inhibition of the beta-secretase enzyme as it cleaves a non-native peptide.
Chain of BACE1 (P56817 46-457): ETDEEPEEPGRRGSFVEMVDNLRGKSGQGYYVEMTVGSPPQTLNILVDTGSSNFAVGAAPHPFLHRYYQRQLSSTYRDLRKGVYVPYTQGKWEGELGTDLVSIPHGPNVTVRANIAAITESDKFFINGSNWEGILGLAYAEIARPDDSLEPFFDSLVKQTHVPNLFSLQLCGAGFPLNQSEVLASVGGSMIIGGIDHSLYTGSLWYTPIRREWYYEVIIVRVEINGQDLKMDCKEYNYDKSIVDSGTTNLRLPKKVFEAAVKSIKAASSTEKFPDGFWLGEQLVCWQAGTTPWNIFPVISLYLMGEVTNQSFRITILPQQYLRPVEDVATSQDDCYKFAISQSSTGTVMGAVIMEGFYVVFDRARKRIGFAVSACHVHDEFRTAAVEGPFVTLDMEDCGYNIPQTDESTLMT
A synthetic APP substrate that can be cleaved by beta-secretase having N-terminal biotin and made fluorescent by the covalent attachment of Oregon Green at the Cys residue is used to assay beta-secretase activity in the presence or absence of the inhibitory compounds. […] The BACE1 enzyme is affinity purified material from conditioned media of CHO-K1 cells that have been transfected with a soluble BACE construct (BACE1deltaTM96His). […] Plates are covered and incubated for 3 hours at 37° C. […] The activity of the beta-secretase enzyme is detected by changes in the fluorescence polarization that occur when the substrate is cleaved by the enzyme.
A word on the IC50: it is the concentration that inhibits the measured activity by half. Take `C[C@H]1C[C@H]2CSC(N)=N[C@@]2(c2nc(NC(=O)c3coc(CF)n3)cs2)CO1` [Example 3, N-{2-[(4aR,6S,8aR)-2-amino-6-methyl-4,4a,5,6-tetrahydropyrano[3,4-d][1,3]thiazin-8a(8H)-yl]-1,3-thiazol-4-yl}-2-(fluoromethyl)-1,3-oxazole-4-carboxamide]: the IC50 amounted to 7 nM.
Still for that read-out and setting: to `C[C@H]1C[C@H]2CSC(N)=N[C@@]2(c2nc(NC(=O)c3ccn(C(F)F)n3)cs2)CO1` [Example 4, N-{2-[(4aR,6S,8aR)-2-amino-6-methyl-4,4a,5,6-tetrahydropyrano[3,4-d][1,3]thiazin-8a(8H)-yl]-1,3-thiazol-4-yl}-1-(difluoromethyl)-1H-pyrazole-3-carboxamide] belongs 9 nM; to `C[C@H]1C[C@H]2CSC(N)=N[C@@]2(c2nc(NC(=O)c3ccc(C#N)cn3)cs2)CO1` [Example 5, N-{2-[(4aR,6S,8aR)-2-amino-6-methyl-4,4a,5,6-tetrahydropyrano[3,4-d][1,3]thiazin-8a(8H)-yl]-1,3-thiazol-4-yl}-5-cyanopyridine-2-carboxamide], 22 nM; to `C[C@H]1C[C@H]2CSC(N)=N[C@@]2(c2nc(NC(=O)c3ccc(F)cn3)cs2)CO1` [Example 9, N-{2-[(4aR,6S,8aR)-2-amino-6-methyl-4,4a,5,6-tetrahydropyrano[3,4-d][1,3]thiazin-8a(8H)-yl]-1,3-thiazol-4-yl}-5-fluoropyridine-2-carboxamide], 189 nM.
Regarding `COc1cnc(C(=O)Nc2csc([C@]34CO[C@@H](C)C[C@H]3CSC(N)=N4)n2)cn1` [Example 10, N-{2-[(4aR,6S,8aR)-2-amino-6-methyl-4,4a,5,6-tetrahydropyrano[3,4-d][1,3]thiazin-8a(8H)-yl]-1,3-thiazol-4-yl}-5-methoxypyrazine-2-carboxamide], the IC50 was 536 nM.
Turning to `C[C@H]1C[C@H]2CSC(N)=N[C@@]2(c2nc(NC(=O)c3cnc(CF)cn3)cs2)CO1` [Example 11, N-{2-[(4aR,6S,8aR)-2-amino-6-methyl-4,4a,5,6-tetrahydropyrano[3,4-d][1,3]thiazin-8a(8H)-yl]-1,3-thiazol-4-yl}-5-(fluoromethyl)pyrazine-2-carboxamide], the IC50 was found to be 315 nM.
Consider `C[C@H]1C[C@H]2CSC(N)=N[C@@]2(c2nc(NC(=O)c3cnc(OCC(F)F)cn3)cs2)CO1` [Example 12, N-{2-[(4aR,6S,8aR)-2-amino-6-methyl-4,4a,5,6-tetrahydropyrano[3,4-d][1,3]thiazin-8a(8H)-yl]-1,3-thiazol-4-yl}-5-(2,2-difluoroethoxy)pyrazine-2-carboxamide], for which the IC50 was 280 nM.
On the same count and under the same terms, to `C[C@H]1C[C@H]2CSC(N)=N[C@@]2(c2nc(NC(=O)c3cnc(C(F)F)cn3)cs2)CO1` [Example 15, N-{2-[(4aR,6S,8aR)-2-amino-6-methyl-4,4a,5,6-tetrahydropyrano[3,4-d][1,3]thiazin-8a(8H)-yl]-1,3-thiazol-4-yl}-5-(difluoromethyl)pyrazine-2-carboxamide] belongs 145 nM; to `C[C@H]1C[C@H]2CSC(N)=N[C@@]2(c2nc(NC(=O)c3ccc(C(F)(F)F)cn3)cs2)CO1` [Example 17, N-{2-[(4aR,6S,8aR)-2-amino-6-methyl-4,4a,5,6-tetrahydropyrano[3,4-d][1,3]thiazin-8a(8H)-yl]-1,3-thiazol-4-yl}-5-(trifluoromethyl)pyridine-2-carboxamide], 54 nM.
As for `C[C@H]1C[C@H]2CSC(N)=N[C@@]2(c2nc(NC(=O)c3ncc(F)cc3F)cs2)CO1` [Example 18, N-{2-[(4aR,6S,8aR)-2-amino-6-methyl-4,4a,5,6-tetrahydropyrano[3,4-d][1,3]thiazin-8a(8H)-yl]-1,3-thiazol-4-yl}-3,5-difluoropyridine-2-carboxamide], the 50% inhibitory concentration (IC50) stood at 153 nM.
`COc1ccc(C(=O)Nc2csc([C@]34CO[C@@H](C)C[C@H]3CSC(N)=N4)n2)nc1` [Example 19, N-{2-[(4aR,6S,8aR)-2-amino-6-methyl-4,4a,5,6-tetrahydropyrano[3,4-d][1,3]thiazin-8a(8H)-yl]-1,3-thiazol-4-yl}-5-methoxypyridine-2-carboxamide]: the IC50 turned out to be 259 nM.
As to `C[C@H]1C[C@H]2CSC(N)=N[C@@]2(c2nc(NC(=O)c3ccc(OC(F)(F)F)cn3)cs2)CO1` [Example 20, N-{2-[(4aR,6S,8aR)-2-amino-6-methyl-4,4a,5,6-tetrahydropyrano[3,4-d][1,3]thiazin-8a(8H)-yl]-1,3-thiazol-4-yl}-5-(trifluoromethoxy)pyridine-2-carboxamide], the IC50 is 108 nM.
Still for that read-out and setting: then `C[C@H]1C[C@H]2CSC(N)=N[C@@]2(c2nc(NC(=O)c3ccc(OC(F)F)cc3)cs2)CO1` [Example 21, N-{2-[(4aR,6S,8aR)-2-amino-6-methyl-4,4a,5,6-tetrahydropyrano[3,4-d][1,3]thiazin-8a(8H)-yl]-1,3-thiazol-4-yl}-4-(difluoromethoxy)benzamide], with 106 nM.
Take `CC#CCOc1cnc(C(=O)Nc2csc([C@]34CO[C@@H](C)C[C@H]3CSC(N)=N4)n2)cn1` [Example 22, N-{2-[(4aR,6S,8aR)-2-amino-6-methyl-4,4a,5,6-tetrahydropyrano[3,4-d][1,3]thiazin-8a(8H)-yl]-1,3-thiazol-4-yl}-5-(but-2-yn-1-yloxy)pyrazine-2-carboxamide]: the IC50 was 13 nM.
For `C[C@H]1C[C@H]2CSC(N)=N[C@@]2(c2nc(NC(=O)c3cc4ccccn4n3)cs2)CO1` [Example 23, N-{2-[(4aR,6S,8aR)-2-amino-6-methyl-4,4a,5,6-tetrahydropyrano[3,4-d][1,3]thiazin-8a(8H)-yl]-1,3-thiazol-4-yl}pyrazolo[1,5-a]pyridine-2-carboxamide], the IC50 stood at 1000 nM.
As for `C[C@H]1C[C@H]2CSC(N)=N[C@@]2(c2nc(NC(=O)c3ccn(C)n3)cs2)CO1` [Example 24, N-{2-[(4aR,6S,8aR)-2-amino-6-methyl-4,4a,5,6-tetrahydropyrano[3,4-d][1,3]thiazin-8a(8H)-yl]-1,3-thiazol-4-yl}-1-methyl-1H-pyrazole-3-carboxamide], the IC50 came to 81 nM.
Regarding `C[C@H]1C[C@H]2CSC(N)=N[C@@]2(c2nc(NC(=O)c3ccc(C(F)F)cn3)cs2)CO1` [Example 25, N-{2-[(4aR,6S,8aR)-2-amino-6-methyl-4,4a,5,6-tetrahydropyrano[3,4-d][1,3]thiazin-8a(8H)-yl]-1,3-thiazol-4-yl}-5-(difluoromethyl)pyridine-2-carboxamide], the IC50 was found to be 74 nM.
Turning to `C[C@H]1C[C@H]2CSC(N)=N[C@@]2(c2nc(NC(=O)c3ccc(OCF)cn3)cs2)CO1` [Example 26, N-{2-[(4aR,6S,8aR)-2-amino-6-methyl-4,4a,5,6-tetrahydropyrano[3,4-d][1,3]thiazin-8a(8H)-yl]-1,3-thiazol-4-yl}-5-(fluoromethoxy)pyridine-2-carboxamide], the IC50 came out at 68 nM.
Same read-out and setting: then `C[C@H]1C[C@H]2CSC(N)=N[C@@]2(c2nc(NC(=O)c3coc(C4CC4)n3)cs2)CO1` [Example 27, N-{2-[(4aR,6S,8aR)-2-amino-6-methyl-4,4a,5,6-tetrahydropyrano[3,4-d][1,3]thiazin-8a(8H)-yl]-1,3-thiazol-4-yl}-2-cyclopropyl-1,3-oxazole-4-carboxamide], with 1310 nM.
With `C[C@H]1C[C@H]2CSC(N)=N[C@@]2(c2nc(NC(=O)c3cnccn3)cs2)CO1` [Example 28, N-{2-[(4aR,6S,8aR)-2-amino-6-methyl-4,4a,5,6-tetrahydropyrano[3,4-d][1,3]thiazin-8a(8H)-yl]-1,3-thiazol-4-yl}pyrazine-2-carboxamide], the IC50 amounted to 647 nM.
Turning to `Cc1nn(C)cc1C(=O)Nc1csc([C@]23CO[C@@H](C)C[C@H]2CSC(N)=N3)n1` [Example 29, N-{2-[(4aR,6S,8aR)-2-amino-6-methyl-4,4a,5,6-tetrahydropyrano[3,4-d][1,3]thiazin-8a(8H)-yl]-1,3-thiazol-4-yl}-1,3-dimethyl-1H-pyrazole-4-carboxamide], the IC50 stood at 1990 nM.
As to `C[C@H]1C[C@H]2CSC(N)=N[C@@]2(c2nc(NC(=O)c3cccnn3)cs2)CO1` [Example 30, N-{2-[(4aR,6S,8aR)-2-amino-6-methyl-4,4a,5,6-tetrahydropyrano[3,4-d][1,3]thiazin-8a(8H)-yl]-1,3-thiazol-4-yl}pyridazine-3-carboxamide], the IC50 is 2160 nM.

Staying with this assay, now noted: read-out: BACE1 Cell-free Assay IC50.
Take `Cc1cc(F)cnc1C(=O)Nc1csc([C@]23CO[C@@H](C)C[C@H]2CSC(N)=N3)n1` [Example 13, N-{2-[(4aR,6S,8aR)-2-amino-6-methyl-4,4a,5,6-tetrahydropyrano[3,4-d][1,3]thiazin-8a(8H)-yl]-1,3-thiazol-4-yl}-5-fluoro-3-methylpyridine-2-carboxamide, formate salt]: the IC50 is 90 nM.
With `C[C@H]1C[C@H]2CSC(N)=N[C@@]2(c2nc(NC(=O)c3ccc(F)cc3)cs2)CO1` [Example 14, N-{2-[(4aR,6S,8aR)-2-amino-6-methyl-4,4a,5,6-tetrahydropyrano[3,4-d][1,3]thiazin-8a(8H)-yl]-1,3-thiazol-4-yl}-4-fluorobenzamide, formate salt], the IC50 worked out at 866 nM.
Same read-out and setting: to `C[C@H]1C[C@H]2CSC(N)=N[C@@]2(c2nc(NC(=O)c3cnc(C(F)(F)F)cn3)cs2)CO1` [Example 16, N-{2-[(4aR,6S,8aR)-2-amino-6-methyl-4,4a,5,6-tetrahydropyrano[3,4-d][1,3]thiazin-8a(8H)-yl]-1,3-thiazol-4-yl}-5-(trifluoromethyl)pyrazine-2-carboxamide, formate salt] belongs 193 nM.
